Among the data in PubChem BioAssay AID1033 (Sanford-Burnham Center for Chemical Genomics, 2008) are Kd values, retold here.

Calls of active or inactive are those of the source. No rule for the calls is given here. Where only a bound is given, the exact number is not on record here.

This assay has as its target Chaperone protein DnaK (Escherichia coli (strain K12)) (UniProt P0A6Y8). In words: E. coli DnaK SBD ligand binding – biophysical, NMR, chaperone (AID 1033). As to conditions: Purified DnaK SBD.

Chaperone protein DnaK (Escherichia coli (strain K12)), sequence (P0A6Y8 whole entry, looked up): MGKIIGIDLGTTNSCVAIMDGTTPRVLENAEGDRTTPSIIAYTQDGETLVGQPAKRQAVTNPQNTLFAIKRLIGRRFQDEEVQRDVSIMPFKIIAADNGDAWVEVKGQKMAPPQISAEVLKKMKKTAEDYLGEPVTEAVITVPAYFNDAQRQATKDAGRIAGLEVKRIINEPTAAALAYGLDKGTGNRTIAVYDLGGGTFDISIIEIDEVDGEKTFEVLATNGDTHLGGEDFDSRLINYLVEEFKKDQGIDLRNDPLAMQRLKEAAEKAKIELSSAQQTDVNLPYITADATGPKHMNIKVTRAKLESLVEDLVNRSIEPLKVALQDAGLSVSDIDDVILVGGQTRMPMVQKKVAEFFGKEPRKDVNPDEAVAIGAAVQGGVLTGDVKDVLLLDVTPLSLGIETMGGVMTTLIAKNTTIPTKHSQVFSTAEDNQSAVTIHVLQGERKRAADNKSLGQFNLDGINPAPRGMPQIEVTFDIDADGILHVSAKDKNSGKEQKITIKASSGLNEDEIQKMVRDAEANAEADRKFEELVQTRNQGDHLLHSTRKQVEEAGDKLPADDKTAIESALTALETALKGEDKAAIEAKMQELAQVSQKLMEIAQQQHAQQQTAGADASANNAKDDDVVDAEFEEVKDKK

The Kd is a measure of binding affinity in units of concentration. Regarding `Cc1nn2c(=O)c(NC(=O)c3ccccc3)cnc2s1`, the Kd is > 4 mM (inactive). Turning to `CC(=O)NC1C(=O)Nc2c(C)cc(C)cc21` (stereo unspecified), the Kd is > 4 mM (inactive). As for `c1ccc(Cc2nnc3sc(-c4cccnc4)nn23)cc1`, the Kd was > 4 mM (inactive). In the case of `O=c1[nH]cnc2nc[nH]c12` it was > 4 mM (inactive); in that of `O=CN1CCN(C(=O)c2ccccc2Cl)CC1`, > 4 mM (inactive); in that of `c1ccc(CN2CCC3(CC2)Nc2ccccc2CO3)cc1`, > 4 mM (inactive). For the compound `CN(C)S(=O)(=O)c1ccc(C(=O)NN)cc1`, the Kd is > 4 mM (inactive). For the compound `O=C1c2cccc3cc(S(=O)(=O)O)cc(c23)C(=O)N1O`, the Kd is > 4 mM (inactive).

Consider `Cc1nc(-c2cnccn2)sc1C(=O)O`, for which the Kd was > 4 mM (inactive).

In the case of `c1ccc(-n2nnnc2Oc2cccc3cccnc23)cc1`, the Kd was > 4 mM (inactive). Next, `[O-][n+]1c2ccccc2[n+]([O-])c2cc(O)ccc21`: > 4 mM (inactive); `O=c1[nH]c(O)c(C=NCc2cccs2)c(=O)[nH]1`: > 4 mM (inactive). As to `Cc1ccc(-c2cc(C(=O)N3CCCC3)no2)cc1`, the Kd was > 4 mM (inactive). On to `Cn1c(=O)c2[nH]cnc2n(-c2ccccc2)c1=O`, for which the Kd was > 4 mM (inactive).

For the compound `C/C(=N\NC(N)=S)C(=O)O`, the Kd is > 4 mM (inactive). On to `CC(=O)O[C@@H]1C[C@@]2(C)[C@H](c3ccoc3)C[C@H]3O[C@]32[C@]2(C)C(=O)C(O)=C3C(C)(C)C(=O)C=C[C@]3(C)C12` (stereo partly specified), for which the Kd was > 4 mM (inactive).

Take `CN1C(=O)N(C)C2NC(=O)NC21` (stereo unspecified): the Kd is > 4 mM (inactive). Next, `NC(=O)NCCCC(N)C(=O)O` (stereo unspecified): > 4 mM (inactive). Next, `COCC(=O)Nc1c(C(N)=O)oc2ccccc12`: > 4 mM (inactive); `COC1CC(O[C@H]2CC[C@]3(C=O)C4CC[C@]5(C)C(C6=CC(=O)OC6)CC[C@]5(O)C4CC[C@]3(O)C2)OC(C)C1O` (stereo partly specified): > 4 mM (inactive); `NC(=O)CCn1cnc2ccccc21`: > 4 mM (inactive). In the case of `NC1=NC(=O)/C(=C/c2ccc(O)c(Cl)c2)S1` it was > 4 mM (inactive); in that of `CC(=O)Oc1ccc(-c2cc(=O)c3c(OC(C)=O)cc(OC(C)=O)cc3o2)cc1`, > 4 mM (inactive); in that of `Nc1ncnc2c1ncn2CCOc1ccccc1`, > 4 mM (inactive). In the case of `Cc1cc(C(=O)NCc2cccnc2)cs1`, the Kd is > 4 mM (inactive). For `NS(=O)(=O)c1ccc2c3c(cccc13)C(=O)N2`, the Kd is > 4 mM (inactive). As for `CC(=O)Nc1cc(O)cc(O)c1`, the Kd was > 4 mM (inactive). Regarding `Cc1onc(-c2ccccc2)c1C(=O)O`, the Kd is > 4 mM (inactive). Consider `COc1cc(-c2coc3cc(O[C@@H]4O[C@H](CO)[C@@H](O)[C@H](O)[C@H]4O)c(OC)c(O)c3c2=O)cc(O)c1OC`, for which the Kd was > 4 mM (inactive). For the compound `NCCc1nc2ccccc2[nH]1`, the Kd is > 4 mM (inactive). As to `O=C1CSC(=Nc2cc(Cl)ccc2Cl)N1`, the Kd was > 4 mM (inactive).

In the case of `CCCCCCCCCCCCCc1ccco1`, the Kd is > 4 mM (inactive). Regarding `Cc1ccc(C(=O)N2CCC(C(=O)O)CC2)cc1`, the Kd was > 4 mM (inactive).

Consider `O=C(O)CCN1CCc2ccccc2C1c1ccncc1` (stereo unspecified), for which the Kd is > 4 mM (inactive).

`Cc1cc(N2CCCC2=O)c(N)cc1N`: the Kd is > 4 mM (inactive). Next, `Cc1cc(C)n(-c2nc(N)cc(=O)[nH]2)n1`: > 4 mM (inactive); `CNC(=O)c1ccc([N+](=O)[O-])cc1Cl`: > 4 mM (inactive); `CSc1nc(NC(C)C)nc(N2CCOCC2)n1`: > 4 mM (inactive). In the case of `O=C1NNC(=O)C2C3c4ccccc4C(c4ccccc43)C12` (stereo unspecified) it was > 4 mM (inactive). In the case of `COC(=O)CC1NC2CCCCC2NC1=O` (stereo unspecified) it was > 4 mM (inactive); in that of `CC(C)=NNC(=O)C(=O)Nc1ccc(F)cc1`, > 4 mM (inactive). As for `COc1ccc2c(c1)OC/C(=C/c1ccc(OC)c(OC)c1)C2=O`, the Kd is > 4 mM (inactive). In the case of `COC(=O)C1Cc2ccccc2N1` (stereo unspecified) it was > 4 mM (inactive); in that of `c1ccc(CCc2nc(-c3ccccn3)no2)cc1`, > 4 mM (inactive).

With `CNC(=O)CC1Sc2ccccc2NC1=O` (stereo unspecified), the Kd was > 4 mM (inactive).

For the compound `O=C(O)c1sccc1-n1cccc1`, the Kd was > 4 mM (inactive). Next, `Nc1ccc2c(c1)OCO2`: > 4 mM (inactive); `Cc1cc(C)n(-c2ccc(Cl)nn2)n1`: > 4 mM (inactive).

Consider `CN1CCC(=NNC(=O)c2ccco2)CC1`, for which the Kd is > 4 mM (inactive). Next, `O=C1NC(=O)C(Cc2cccs2)C(=O)N1`: > 4 mM (inactive); `Cc1nn(C)c(N2CCOCC2)c1N`: > 4 mM (inactive); `CO[C@H]1[C@@H](O)[C@@H](C)O[C@H](O[C@H]2CCC3(C)C4CCC5(C)[C@@H](C6=CC(=O)OC6)CC[C@]5(O)[C@@H]4CC[C@]3(O)C2)[C@@H]1O` (stereo partly specified): > 4 mM (inactive).

With `COc1cc2c(cc1O)CCNC2C` (stereo unspecified), the Kd was > 4 mM (inactive). Next, `O=C1C2CCCCC2C(=O)N1Cc1cccnc1` (stereo unspecified): > 4 mM (inactive); `S=c1[nH]cnc2sccc12`: > 4 mM (inactive).

As for `O=C(O)c1cccnc1N1CCCC1`, the Kd is > 4 mM (inactive). On to `CN(C)S(=O)(=O)N1CCc2ccccc21`, for which the Kd was > 4 mM (inactive).

For the compound `O=C(Cc1cccs1)Nc1nncs1`, the Kd is > 4 mM (inactive). Take `COc1ncccc1N`: the Kd is > 4 mM (inactive). Turning to `Cc1nc(N2CCOCC2)[nH]c(=O)c1C`, the Kd was > 4 mM (inactive). For `CN(Cc1nc2ccccc2n1C)S(C)(=O)=O`, the Kd is > 4 mM (inactive). Take `Cc1cc(C)n(S(=O)(=O)c2ccc(C(C)(C)C)cc2)n1`: the Kd was > 4 mM (inactive).

For `CN(C)c1ccc(/C=C2/NC(=S)NC2=O)cc1`, the Kd was > 4 mM (inactive).

Consider `Nc1cc2ccccc2cn1`, for which the Kd was > 4 mM (inactive). Next, `COc1ccc(/C=C2/N=C(N)SC2=O)cc1`: > 4 mM (inactive); `Cc1ccc(NC(=O)/C=C2\SC(=O)NC2=O)cc1`: > 4 mM (inactive).

As for `COc1cc2c3cc1Oc1c(OC)c(OC)cc4c1[C@@H](Cc1cccc(c1)Oc1ccc(c(O)c1)C[C@@H]3N(C)CC2)N(C)CC4`, the Kd is > 4 mM (inactive).

For the compound `O=C(O)c1c[nH]c2ccccc12`, the Kd was > 4 mM (inactive). Next, `CNC(=S)NCCN1CCOCC1`: > 4 mM (inactive); `CC(=O)Nc1ccn(Cc2c(F)cccc2Cl)n1`: > 4 mM (inactive). Next, `NC(=O)CSc1nc2[nH]ncc2c(=O)[nH]1`: > 4 mM (inactive); `O=C1CC(=O)N(c2ccccc2F)C(=S)N1`: > 4 mM (inactive); `O=c1c2ccccc2[nH]c2ncccc12`: > 4 mM (inactive). With `Cc1ncoc1C(=O)Nc1ccccc1C(N)=O`, the Kd was > 4 mM (inactive). As for `NC(CC(=O)O)c1ccccc1` (stereo unspecified), the Kd was > 4 mM (inactive). For the compound `O=C(O)CN1CCN(C2CCCC2)CC1`, the Kd was > 4 mM (inactive). In the case of `OCC1CCCCCN1` (stereo unspecified) it was > 4 mM (inactive); in that of `O=C(CCc1ccc(O)cc1)c1c(O)cc(O)cc1O[C@@H]1O[C@H](CO)[C@@H](O)[C@H](O)[C@H]1O`, > 4 mM (inactive); in that of `CCCCn1c(S(=O)(=O)O)nc2ccccc21`, > 4 mM (inactive). Regarding `CC(NC(=O)C1CCCCC1)C(=O)NC1=NCCS1` (stereo unspecified), the Kd is > 4 mM (inactive). `NC(=O)c1ccccc1NC(=O)C1CCCO1` (stereo unspecified): the Kd is > 4 mM (inactive). In the case of `Cc1occc1C(=O)Nc1sccc1C(N)=O` it was > 4 mM (inactive); in that of `Cc1nccc2c1[nH]c1ccccc12`, > 4 mM (inactive); in that of `COc1ccc(N2C(=N)C(C)(C)NC2=O)cc1`, > 4 mM (inactive). In the case of `O=c1[nH]cc(N2CCCCC2)c(=O)[nH]1` it was > 4 mM (inactive); in that of `CC(=O)OCC(=O)[C@@]1(O)CCC2C3CC[C@@H]4C[C@H](OC(C)=O)CC[C@]4(C)C3C(=O)C[C@@]21C` (stereo partly specified), > 4 mM (inactive). Turning to `O=C1NC(=O)C(C2SC(=O)NC2=O)S1` (stereo unspecified), the Kd is > 4 mM (inactive). Consider `C=C(C)C1CC=C(CO)CC1` (stereo unspecified), for which the Kd is > 4 mM (inactive).

For the compound `CCOC(=O)c1snnc1-c1ccccc1`, the Kd was > 4 mM (inactive). In the case of `CC1(C)C(=O)C=C[C@@]2(C)C1CC(=O)[C@]1(C)C2CC[C@@]2(C)[C@H](c3ccoc3)OC(=O)[C@H]3O[C@]321` (stereo partly specified) it was > 4 mM (inactive); in that of `Cc1ccccc1NC(=O)/C=C\C(N)=O`, > 4 mM (inactive).

Consider `Cc1nc2ccc(C(=O)O)cc2nc1C`, for which the Kd is > 4 mM (inactive). In the case of `Cc1c(C(=O)NC2=NCCS2)oc2ccccc12`, the Kd was > 4 mM (inactive).

Regarding `CSc1n[nH]c(NCc2cccs2)n1`, the Kd is > 4 mM (inactive). In the case of `COc1cc(OC)c2c(c1Cl)OC1(C2=O)C(O)=CC(=O)CC1C` (stereo unspecified) it was > 4 mM (inactive).

Take `O=C(Oc1ccc(-c2nnco2)cc1)N1CCOCC1`: the Kd was > 4 mM (inactive). Take `O=C(c1ncc[nH]1)c1ccccc1C(=O)N1CCOCC1`: the Kd was > 4 mM (inactive). In the case of `NC(=O)c1ccc(NC(=O)c2ccco2)cc1` it was > 4 mM (inactive).

Turning to `O=C(Nc1ccon1)c1ccccc1Cl`, the Kd was > 4 mM (inactive). Turning to `CCC(C)C(=O)O[C@@H]1C[C@@]2(C)[C@H](c3ccoc3)OC(=O)CC23OC2(C)OC34[C@H](OC(=O)C(C)C)[C@@]3(O)[C@@H](OC(=O)C5(C)OC5C)[C@@]5(C)C[C@]3(O)[C@@](C)([C@H]5CC(=O)OC)C14O2` (stereo partly specified), the Kd was > 4 mM (inactive).

Turning to `S=c1nc(Cc2ccccc2)[nH][nH]1`, the Kd was > 4 mM (inactive).
